The results in this text go back to patent US7101878B1 (Agouron Pharmaceuticals, Inc., priority 1998, dated 2006).

Read-outs that look alike come from different tables or passages of the source.

This assay concerns the target T1, human GnRH receptor (Homo sapiens, UniProt P30968).
T1 construct: expressed in transfected cells; host or cells: HEK 293 (hGnRH-R/293, from Dr. Stuart Sealfon)
T1 sequence (P30968 1-328): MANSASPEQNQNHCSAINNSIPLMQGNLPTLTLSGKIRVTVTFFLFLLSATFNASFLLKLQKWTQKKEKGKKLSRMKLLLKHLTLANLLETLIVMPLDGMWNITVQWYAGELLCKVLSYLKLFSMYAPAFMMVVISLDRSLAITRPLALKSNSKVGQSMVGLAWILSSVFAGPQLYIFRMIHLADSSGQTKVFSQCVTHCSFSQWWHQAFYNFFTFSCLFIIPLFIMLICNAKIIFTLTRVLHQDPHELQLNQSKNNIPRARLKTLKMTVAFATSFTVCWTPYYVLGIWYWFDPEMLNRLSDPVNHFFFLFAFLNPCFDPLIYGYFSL
Nature of the assay: Radioligand binding, 125I-GnRH-A displacement, membranes of HEK 293 cells with human GnRH receptor. The procedure:
All compounds were diluted in 1% DMSO (final assay concentration) in binding assay buffer. […] Reactions were terminated by rapid filtration onto 96-well Packard GF/C filters soaked in 0.1% polyethyleneimine. Filters were washed three times with PBS buffer, dried and counted on a Packard Topcount by liquid scintillation counting.
Assay conditions were identical for assessing compound activities at other species. […] IC50 values for control peptides and test compounds were calculated utilizing GraphPad Prism™ software.
Crude compounds were tested using the competitive radioligand binding assay described above.
The reaction mixture was vortexed and incubated for 1 min at room temperature. After one min, the mixture was vortexed and allowed to incubate for an additional minute. 2 ml of 0.5 M acetic acid/1% BSA was added to the reaction tube and the mixture was added to a C18 Sep-Pak cartridge. The cartridge was washed with subsequent washes of 5 ml H2O and 5 ml 0.5M acetic acid and then eluted with 5×1 ml of 60% CH3CN/40% 0.5M acetic acid. The eluate was diluted with 3× volume of HPLC buffer A (0.1% TFA in H2O) and loaded onto a C18 column. The iodinated product was eluted over 20-25 min with a gradient of 25-100% CH3CN containing 0.1% TFA. The radioactive fractions (750 ed/fraction) are collected into clean polypropylene tubes containing 100 μl of 10% BSA. Fractions were assessed for biological activity by radioligand binding.
S%R is the substrate remaining.

Setting [1] is: 1 uM, read-out: % Inhib. @ 1 uM hGnRH.
[2] abbreviates: 1 h, repeat of % Inhib. at 1 uM, read-out: Repeats @ 1 uM hGnRH.

As to `Cc1cc2c(cc1Cc1ccc(C(=O)NCC(c3ccccc3)c3ccccc3)o1)C(C)(C)CCC2(C)C`, the inhibition at 1 µM was -21% under setting [1] and -26% under setting [2].

Regarding `Cc1cc2c(cc1Cc1ccc(C(=O)NC3=NN(c4c(Cl)cc(Cl)cc4Cl)C(=O)C3)o1)C(C)(C)CCC2(C)C`, the inhibition at 1 µM reads like this: under setting [1], -29%; under setting [2], -31%.

Turning to `Cc1cc2c(cc1Cc1ccc(C(=O)Nc3ccccc3C(=O)Nc3cnccn3)o1)C(C)(C)CCC2(C)C`, the inhibition at 1 µM is -27% under setting [1] and -29% under setting [2].

As for `Cc1cc2c(cc1Cc1ccc(C(=O)NCCCNCc3ccc(Cl)cc3)o1)C(C)(C)CCC2(C)C`, the inhibition at 1 µM was -10% under setting [1] and -8% under setting [2].

`CC(=O)C1CCN(C(=O)c2ccc(Cc3cc4c(cc3C)C(C)(C)CCC4(C)C)o2)CC1`: the inhibition at 1 µM turned out to be 59% under setting [1] and 66% under setting [2].

Turning to `Cc1cc2c(cc1Cc1ccc(C(=O)Nc3nccc(Nc4cc(C(F)(F)F)cc(C(F)(F)F)c4)n3)o1)C(C)(C)CCC2(C)C`, the inhibition at 1 µM by setting is: under setting [1], -29%; under setting [2], -30%.

In the case of `Cc1cc2c(cc1Cc1ccc(C(=O)NCc3cccc4c3Cc3ccccc3-4)o1)C(C)(C)CCC2(C)C`, the inhibition at 1 µM by setting is: under setting [1], -21%; under setting [2], -23%.

Take `Cc1cc2c(cc1Cc1ccc(C(=O)NCCCCCC(=O)O)o1)C(C)(C)CCC2(C)C`: the inhibition at 1 µM runs as follows: under setting [1], -12%; under setting [2], -9%.

As for `Cc1cc2c(cc1Cc1ccc(C(=O)NCc3cc4c5ccccc5n(Cc5cc(Cl)ccc5Cl)c4cn3)o1)C(C)(C)CCC2(C)C`, the inhibition at 1 µM is, setting by setting: under setting [1], -34%; under setting [2], -38%.

For the molecule `Cc1cc2c(cc1Cc1ccc(C(=O)NCCCCCN3CCOCC3)o1)C(C)(C)CCC2(C)C`, the inhibition at 1 µM under setting [1] is -14% and the inhibition at 1 µM under setting [2] is -5%.

Regarding `Cc1cc2c(cc1Cc1ccc(C(=O)N3CCN(c4nccc(NCC5CCCO5)n4)CC3)o1)C(C)(C)CCC2(C)C` (stereo not shown), the inhibition at 1 µM is, setting by setting: under setting [1], 22%; under setting [2], 25%.

For the molecule `Cc1cc2c(cc1Cc1ccc(C(=O)NCCc3ccc(-c4ccccc4)cc3)o1)C(C)(C)CCC2(C)C`, the inhibition at 1 µM was -17% under setting [1] and -31% under setting [2].

Consider `Cc1cc2c(cc1Cc1ccc(C(=O)NCCNCCN3CCCC3)o1)C(C)(C)CCC2(C)C`, for which the inhibition at 1 µM is -5% under setting [1] and 0% under setting [2].

For the molecule `Cc1cc2c(cc1Cc1ccc(C(=O)NC3CCCCC3Cc3nccc(NCC4CCCO4)n3)o1)C(C)(C)CCC2(C)C` (stereo not shown), the inhibition at 1 µM is -21% under setting [1] and -5% under setting [2].

As for `Cc1cc2c(cc1Cc1ccc(C(=O)NC3CCCCC3Cc3ccnc(NCC4CCCO4)n3)o1)C(C)(C)CCC2(C)C` (stereo not shown), the inhibition at 1 µM reads like this: under setting [1], 11%; under setting [2], 13%.

As for `Cc1cc2c(cc1Cc1ccc(C(=O)NCC3CCCC(CNc4cccc(NCC5CCCO5)n4)C3)o1)C(C)(C)CCC2(C)C` (stereo not shown), the inhibition at 1 µM is, setting by setting: under setting [1], 84%; under setting [2], 89%.

For the molecule `Cc1cc2c(cc1Cc1ccc(C(=O)NCCc3c[nH]c4ccc(OCc5ccccc5)cc34)o1)C(C)(C)CCC2(C)C`, the inhibition at 1 µM is -6% under setting [1] and -7% under setting [2].

As to `Cc1cc2c(cc1Cc1ccc(C(=O)NCCNc3cccc(NCC4CCCO4)n3)o1)C(C)(C)CCC2(C)C` (stereo not shown), the inhibition at 1 µM came out at 18% under setting [1] and 22% under setting [2].

`Cc1cc2c(cc1Cc1ccc(C(=O)NC3CCN(Cc4ccccc4)CC3)o1)C(C)(C)CCC2(C)C`: the inhibition at 1 µM was -12% under setting [1] and 14% under setting [2].

For the molecule `Cc1cc2c(cc1Cc1ccc(C(=O)NC(CO)C(O)c3ccccc3)o1)C(C)(C)CCC2(C)C` (stereo not shown), the inhibition at 1 µM is -1% under setting [1] and 12% under setting [2].

Regarding `Cc1cc2c(cc1Cc1ccc(C(=O)N(Cc3ccccc3)Cc3ccccc3)o1)C(C)(C)CCC2(C)C`, the inhibition at 1 µM was -2% under setting [1] and 3% under setting [2].

As to `Cc1cc2c(cc1Cc1ccc(C(=O)N(C)Cc3ccccc3)o1)C(C)(C)CCC2(C)C`, the inhibition at 1 µM is -7% under setting [1] and 4% under setting [2].

Turning to `Cc1cc2c(cc1Cc1ccc(C(=O)NC(CO)Cc3ccc(Cl)cc3)o1)C(C)(C)CCC2(C)C` (stereo not shown), the inhibition at 1 µM under setting [1] came out at 16% and the inhibition at 1 µM under setting [2] was 3%.

In the case of `Cc1cc2c(cc1Cc1ccc(C(=O)NC(Cc3ccccc3)c3ccccc3)o1)C(C)(C)CCC2(C)C` (stereo not shown), the inhibition at 1 µM by setting is: under setting [1], 13%; under setting [2], 19%.

Consider `Cc1cc2c(cc1Cc1ccc(C(=O)NC(CO)c3ccccc3)o1)C(C)(C)CCC2(C)C` (stereo not shown), for which the inhibition at 1 µM by setting is: under setting [1], 17%; under setting [2], 26%.

In the case of `Cc1cc2c(cc1Cc1ccc(C(=O)N[C@H](CO)c3ccccc3)o1)C(C)(C)CCC2(C)C`, the inhibition at 1 µM reads like this: under setting [1], 15%; under setting [2], 26%.

With `Cc1cc2c(cc1Cc1ccc(C(=O)N[C@H](C)[C@@H](O)c3ccccc3)o1)C(C)(C)CCC2(C)C`, the inhibition at 1 µM under setting [1] came to 19% and the inhibition at 1 µM under setting [2] worked out at 25%.

With `Cc1cc2c(cc1Cc1ccc(C(=O)N(C)[C@@H](C)[C@H](C)c3ccccc3)o1)C(C)(C)CCC2(C)C`, the inhibition at 1 µM was -7% under setting [1] and 4% under setting [2].

Turning to `Cc1cc2c(cc1Cc1ccc(C(=O)N(C)[C@@H](C)[C@@H](O)c3ccccc3)o1)C(C)(C)CCC2(C)C`, the inhibition at 1 µM is -11% under setting [1] and -9% under setting [2].

Take `Cc1cc2c(cc1Cc1ccc(C(=O)N(C)[C@H](C)[C@H](O)c3ccccc3)o1)C(C)(C)CCC2(C)C`: the inhibition at 1 µM under setting [1] is -10% and the inhibition at 1 µM under setting [2] is -6%.

For `Cc1cc2c(cc1Cc1ccc(C(=O)N(C)[C@H](C)[C@@H](O)c3ccccc3)o1)C(C)(C)CCC2(C)C`, the inhibition at 1 µM by setting is: under setting [1], 20%; under setting [2], 23%.

`COc1ccc(C(O)C(CO)NC(=O)c2ccc(Cc3cc4c(cc3C)C(C)(C)CCC4(C)C)o2)cc1` (stereo not shown): the inhibition at 1 µM under setting [1] is -11% and the inhibition at 1 µM under setting [2] came to 24%.

For `Cc1cc2c(cc1Cc1ccc(C(=O)NCc3ccccc3OC(F)(F)F)o1)C(C)(C)CCC2(C)C`, the inhibition at 1 µM was 1% under setting [1] and 41% under setting [2].

Regarding `COc1cccc(OC)c1CNC(=O)c1ccc(Cc2cc3c(cc2C)C(C)(C)CCC3(C)C)o1`, the inhibition at 1 µM is -3% under setting [1] and 2% under setting [2].

Turning to `Cc1cc2c(cc1Cc1ccc(C(=O)N(C)CCc3ccccn3)o1)C(C)(C)CCC2(C)C`, the inhibition at 1 µM is, setting by setting: under setting [1], -11%; under setting [2], -7%.

As for `Cc1cc2c(cc1Cc1ccc(C(=O)N(CCc3ccccc3)Cc3ccccc3O)o1)C(C)(C)CCC2(C)C`, the inhibition at 1 µM under setting [1] was -20% and the inhibition at 1 µM under setting [2] was -30%.

For the molecule `CCN(Cc1ccncc1)C(=O)c1ccc(Cc2cc3c(cc2C)C(C)(C)CCC3(C)C)o1`, the inhibition at 1 µM by setting is: under setting [1], 10%; under setting [2], 2%.

For the molecule `COc1ccccc1CC(C)N(C)C(=O)c1ccc(Cc2cc3c(cc2C)C(C)(C)CCC3(C)C)o1` (stereo not shown), the inhibition at 1 µM is, setting by setting: under setting [1], -7%; under setting [2], 15%.

As for `CCCCN(Cc1ccccc1)C(=O)c1ccc(Cc2cc3c(cc2C)C(C)(C)CCC3(C)C)o1`, the inhibition at 1 µM is, setting by setting: under setting [1], -7%; under setting [2], 9%.

On to `Cc1cc2c(cc1Cc1ccc(C(=O)N(CCO)Cc3ccccc3)o1)C(C)(C)CCC2(C)C`, for which the inhibition at 1 µM was -10% under setting [1] and -5% under setting [2].

For `Cc1cc2c(cc1Cc1ccc(C(=O)N(CC(O)c3ccccc3)C3CCCCC3)o1)C(C)(C)CCC2(C)C` (stereo not shown), the inhibition at 1 µM reads like this: under setting [1], -12%; under setting [2], -9%.

With `COc1ccc(C(NC(=O)c2ccc(Cc3cc4c(cc3C)C(C)(C)CCC4(C)C)o2)c2ccc(OC)cc2)cc1`, the inhibition at 1 µM runs as follows: under setting [1], 31%; under setting [2], 42%.

As to `Cc1cc2c(cc1Cc1ccc(C(=O)NCCC(=O)NC(c3ccccc3)c3ccccc3)o1)C(C)(C)CCC2(C)C`, the inhibition at 1 µM by setting is: under setting [1], -23%; under setting [2], -8%.

On to `Cc1cc2c(cc1Cc1ccc(C(=O)NCCCC(=O)NC(c3ccccc3)c3ccccc3)o1)C(C)(C)CCC2(C)C`, for which the inhibition at 1 µM is, setting by setting: under setting [1], 17%; under setting [2], 28%.

As to `Cc1cc2c(cc1Cc1ccc(C(=O)NCc3ccccc3Sc3ccccc3CO)o1)C(C)(C)CCC2(C)C`, the inhibition at 1 µM under setting [1] stood at 51% and the inhibition at 1 µM under setting [2] worked out at 54%.

`Cc1cc2c(cc1Cc1ccc(C(=O)NCCCN(CCO)CCO)o1)C(C)(C)CCC2(C)C`: the inhibition at 1 µM was determined as 35% under setting [1] and 36% under setting [2].

Take `Cc1cc2c(cc1Cc1ccc(C(=O)N3CCN(c4ccc(Cl)cc4)C(C)C3)o1)C(C)(C)CCC2(C)C` (stereo not shown): the inhibition at 1 µM runs as follows: under setting [1], -18%; under setting [2], -7%.
